Laboratory results reported in patent US12102685B2, “Immodulator peptides covalently modified with small molecules” (priority 2020, dated 2024).
Peptide text beside a SMILES is read from it.

Key:
[1] = Iron-binding competition assay with labeled IM3AVD (x2E d); details: labeled IM3AVD plus 10x unlabeled peptide; no competing peptide = 100
Protocol: Experiments were conducted by the procedure described above. Ferric iron-charged NTA-coated 96-well plates were used as described. 1 ug/well immodulator peptide complexed to Alexa-488-labeled streptavidin in PBS buffer was added (60 min at room temperature). The plate was washed and counted in a standard fluorometer (excitation/emission: 485/525 nm). The results (fluorescence) show improved iron-binding by the three peptides extended C-terminally by the AVD, (dA)VD, and FVS tripeptides. **p<0.01 vs IM3 control IM3: 200±29; IM4: 45±37**; IM5: 130±77; IM3AVD: 434±29**; IM3dAVD: 418±28**; IM3FVS: 371±33** • (c) Competition assay. The same procedure was used as the preceding experiment, except that 375 ng/well labeled IM3 peptide was used, plus 10× of the indicated unlabeled peptide. ‘No competing peptide’ control value was set to 100. *p<0.05 vs “no peptide” control Competing Peptide/Fluorescence • None: 100±38; IM4: 125±26; IM3: 63±27*; IM5: 40±14*; IM3AVD: 10±28* • (d) Competition assay. The same procedure was used as the preceding experiment, except that labeled IM3AVD peptide was used. **p<0.01 vs “no competing peptide” control • None: 100±9; IM4: 144±44; IM3: 35±16**; IM5: 30±19**; IM3AVD: 9±19** • (e) The same procedure was used as the preceding experiment, except that each peptide was labeled with Alexa-488-labeled streptavidin in PBS buffer and used separately. Binding to IM3 was set to =100. *p<0.05, **p<0.01 vs IM3 control. (Labeled Peptide/Fluorescence) IM1: 1.8±0.4**; IM2: 3.0±1.8**; IM3: 100.0±16.8; IM4: 7.2±1.7*; IM5: 86.7±6.4; IM6: 85.9±14.9; IM3AVD:137.7±11.8*; IM3dAVD:147.4±22.9*; IM3FVS: 101.5±10.5.

[2] = target: T1, AA111-228 DNA-binding domain of RXR-alpha (RXRa-DBD) (Homo sapiens, UniProt P19793); experiment: Binding to RXRa-DBD (x3A); details: 1 ug/well RXRa-DBD, 800 ng/well SA488-labelled peptide; background subtracted
T1 construct: purchased Abcam, Cambridge, MA
T1 sequence (P19793 111-228): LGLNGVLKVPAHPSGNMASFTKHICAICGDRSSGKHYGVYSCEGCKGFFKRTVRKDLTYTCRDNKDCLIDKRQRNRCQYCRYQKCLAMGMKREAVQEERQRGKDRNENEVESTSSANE
Protocol: Binding of immodulator peptides to AA111-228 DNA-binding domain of RXR-alpha (RXRa-DBD). 1 ug/well recombinant RXRa-DBD (Abcam, Cambridge, MA) was adsorbed to wells of a 96-well plate for 60 minutes at RT, then blocked with 200 uL 1% BSA in PBS buffer overnight. Plate was washed and 800 ng/well Streptavidin-Alexa 488 conjugate (SA488)-labelled IM peptide was added. The plate was incubated for 60 min at room temperature, washed and counted in a standard fluorometer (excitation/emission 485/525 nm). Background (buffer alone) was subtracted.

[3] = tested on: COL1 in HFF-1 dermal fibroblasts; experiment: Collagen-1 ELISA in HFF-1 dermal fibroblasts (x11A); type: cell-based; details: peptide 2 uM, 72 hour; control (buffer) = 100
Protocol: Immune modulation functions of immodulator peptides have potential untility in the field of cosmetics. HFF-1 cell line was obtained from American Type Culture Collection (ATCC). Cells were grown in a T-75 flask in DMEM Medium containing 10% fetal bovine serum and penicillin-streptomycin at 37° C. in a humidified, 5% CO2 incubator. Cells ([…], 2,000 cells/well) were plated in a 96-well plate and incubated overnight at 37° C. in a humidified, 5% CO2 incubator. Next day, […] of compounds were added (quadruplicate wells). After 72 hour incubation with the compound, supernatants were collected for Collagen-1 ELISA assay and cell viability was measured in a luminometer after the addition of […] CellTiterGlo reagent (Promega Inc, Madison, WI) as recommended by the manufacturer.
Collagen stimulating activity of immodulator peptides in HFF-1 dermal fibroblasts. Peptides were added to cells at 2 uM. COL1 immunoreactivity was measured in the supernatants of cultured cells by ELISA using a rabbit monoclonal anti-COL1 primary antibody (Abcam, Cambridge, MA). Control (buffer) value of immunoreactivity was set to 100.

[4] = FITC-PI(4)P1 binding to plate-bound peptide with calcium (x9A)
Protocol: Immodulator peptides IM1, IM3 and IM5 (400 ng/well) in PBS were bound to streptavidin-coated 96-well plates at room temperature for 60 minutes, in the presence or absence of 500 uM calcium chloride. Each well also received 200 ng cold PPI plus 10 ng FITC-labeled PI(4,5)P2 or PI(4)P1. The tables below show the relative fluorescence (with/without calcium background) expressed as a percentage of the highest binder, FITC-PI(4,5)P2+cold PI(3,5)P2, which was 2,496 fluorescence units. Background binding without calcium was, in all cases, 200-300 fluorescence units.

Row | SMILES | fluorescence of labeled IM3AVD with competing peptide [1] | fluorescence [2] | COL1 immunoreactivity in supernatant [3] | relative fluorescence, FITC-PI(4)P1 bound ([4]; cold PPI: 3,4,5-P3) | relative fluorescence, FITC-PI(4)P1 bound ([4]; cold PPI: 3,4-P2) | relative fluorescence, FITC-PI(4)P1 bound ([4]; cold PPI: 3,5-P2) | relative fluorescence, FITC-PI(4)P1 bound ([4]; cold PPI: 3-P1) | relative fluorescence, FITC-PI(4)P1 bound ([4]; cold PPI: 4,5-P2) | relative fluorescence, FITC-PI(4)P1 bound ([4]; cold PPI: 4-P1) | relative fluorescence, FITC-PI(4)P1 bound ([4]; cold PPI: 5-P1) | relative fluorescence, FITC-PI(4)P1 bound ([4]; cold PPI: None)
1 | CC(C)C[C@H](NC(=O)[C@H](C)NC(=O)[C@@H]1CCCN1C(=O)[C@H](Cc1c[nH]cn1)NC(=O)[C@H](CS)NC(=O)[C@H](CCC(N)=O)NC(=O)[C@H](CCCCN)NC(=O)[C@@H]1CCCN1C(=O)[C@H](Cc1c[nH]cn1)NC(=O)[C@H](Cc1ccccc1)NC(=O)[C@H](CC(N)=O)NC(=O)CNC(=O)[C@H](CC(N)=O)NC(=O)[C@@H](N)CCCNC(=N)N)C(=O)N[C@@H](CC(=O)O)C(=O)NCC(=O)N[C@@H](CCC(N)=O)C(=O)N[C@@H](CCCNC(=N)N)C(=O)NCC(=O)N[C@@H](CCCCN)C(=O)N[C@@H](CS)C(=O)N[C@@H](Cc1c[nH]c2ccccc12)C(=O)O [IM4] (H-RNGNFHPKQCHPALDGQRGKCW-OH; N-terminus and C-terminus assumed) | 144±44 | 27±31 | 105 | – | – | – | – | – | – | – | –
2 | CSCC[C@H](NC(=O)[C@H](CO)NC(=O)[C@@H](NC(=O)[C@H](CCC(=O)O)NC(=O)[C@H](CS)NC(=O)[C@H](CCC(N)=O)NC(=O)[C@H](CCCNC(=N)N)NC(=O)[C@H](CO)NC(=O)[C@H](Cc1c[nH]cn1)NC(=O)[C@H](Cc1ccc(O)cc1)NC(=O)[C@H](Cc1ccccc1)NC(=O)CNC(=O)[C@H](CC(N)=O)NC(=O)[C@@H](N)CCCCN)[C@@H](C)O)C(=O)N[C@@H](CC(=O)O)C(=O)NCC(=O)N[C@@H](CCC(=O)O)C(=O)N[C@@H](C)C(=O)NCC(=O)N[C@@H](CC(C)C)C(=O)N[C@@H](CS)C(=O)N[C@@H](Cc1c[nH]c2ccccc12)C(=O)O [IM1] (H-KNGFYHSRQCETSMDGEAGLCW-OH; N-terminus and C-terminus assumed) | – | 670±85 | 98 | 0.1 percentage of the highest binder | 2.6 percentage of the highest binder | 4.3 percentage of the highest binder | 3.1 percentage of the highest binder | 0.8 percentage of the highest binder | 2.7 percentage of the highest binder | 0.5 percentage of the highest binder | 1.6 percentage of the highest binder
3 | N=C(N)NCCC[C@H](NC(=O)CNC(=O)[C@H](CCCCN)NC(=O)[C@H](CO)NC(=O)[C@@H]1CCCN1C(=O)[C@H](CCCNC(=N)N)NC(=O)[C@H](CS)NC(=O)[C@H](CCC(N)=O)NC(=O)[C@H](CCCCN)NC(=O)[C@H](CCCCN)NC(=O)[C@H](CCCCN)NC(=O)[C@H](Cc1ccc(O)cc1)NC(=O)[C@H](Cc1ccccc1)NC(=O)CNC(=O)[C@H](CCCCN)NC(=O)[C@@H](N)CCCCN)C(=O)N[C@@H](CCCCN)C(=O)N[C@@H](CCCNC(=N)N)C(=O)NCC(=O)N[C@@H](Cc1ccccc1)C(=O)N[C@@H](CS)C(=O)N[C@@H](Cc1c[nH]c2ccccc12)C(=O)O [IM3] (H-KKGFYKKKQCRPSKGRKRGFCW-OH; N-terminus and C-terminus assumed) | 35±16 | 6,572±129 | 101 | 1.2 percentage of the highest binder | 2.4 percentage of the highest binder | 5.6 percentage of the highest binder | 2.5 percentage of the highest binder | 0.1 percentage of the highest binder | 2.4 percentage of the highest binder | 1.9 percentage of the highest binder | 2.5 percentage of the highest binder
4 | CSCC[C@H](NC(=O)[C@H](CCCCN)NC(=O)[C@H](CS)NC(=O)[C@H](CCC(N)=O)NC(=O)[C@H](CCCCN)NC(=O)[C@H](CC(C)C)NC(=O)[C@H](CC(N)=O)NC(=O)[C@H](Cc1ccc(O)cc1)NC(=O)[C@H](CC(C)C)NC(=O)CNC(=O)[C@H](Cc1c[nH]cn1)NC(=O)[C@@H](N)CCCCN)C(=O)N[C@@H](CO)C(=O)N[C@@H](CC(C)C)C(=O)N[C@@H](CC(N)=O)C(=O)NCC(=O)N[C@@H](CCC(N)=O)C(=O)N[C@@H](CCCNC(=N)N)C(=O)NCC(=O)N[C@@H](CCC(=O)O)C(=O)N[C@@H](CS)C(=O)N[C@@H](Cc1c[nH]c2ccccc12)C(=O)O [IM2] | – | 2±38 | 109 | – | – | – | – | – | – | – | –
5 | CC[C@H](C)[C@H](NC(=O)CNC(=O)[C@H](CCCNC(=N)N)NC(=O)[C@H](CCCCN)NC(=O)[C@H](CCCNC(=N)N)NC(=O)CNC(=O)[C@H](CCCNC(=N)N)NC(=O)[C@H](CO)NC(=O)[C@@H]1CCCN1C(=O)[C@H](CCCCN)NC(=O)[C@H](CS)NC(=O)[C@H](CCC(N)=O)NC(=O)[C@H](CCCCN)NC(=O)[C@H](CCCNC(=N)N)NC(=O)[C@H](CCCCN)NC(=O)[C@H](Cc1ccc(O)cc1)NC(=O)[C@H](Cc1ccccc1)NC(=O)CNC(=O)[C@H](CCCCN)NC(=O)[C@@H](N)CCCNC(=N)N)C(=O)N[C@@H](CS)C(=O)N[C@@H](Cc1c[nH]c2ccccc12)C(=O)O [IM5] (H-RKGFYKRKQCKPSRGRKRGICW-OH; N-terminus and C-terminus assumed) | 30±19 | 6,802±336 | 93 | 1.2 percentage of the highest binder | 1.7 percentage of the highest binder | 1.3 percentage of the highest binder | 0.9 percentage of the highest binder | 1.8 percentage of the highest binder | 0.8 percentage of the highest binder | 0.4 percentage of the highest binder | 2.1 percentage of the highest binder
